Measurements published in US4731109A, “Herbicidal 2-haloacetanilides” (Monsanto Company, priority 1982, dated 1988).

Assays:
Quackgrass = assay: Herbicidal effect in a variety of soil types; type: in vivo; conditions: for selectivity factor (GR15/GR85): in soybeans
From the text: The herbicide treatments were by soil incorporation with seeds planted 0.375 in (0.95 cm) deep, with 0.25 in (0.64 cm overhead irrigation. Observations were made about three weeks after treatment. Selectivity factors are shown in parenthesis.

red rice = assay: Greenhouse pre-emergence GR15/GR85 selectivity test; type: in vivo
From the text: (§1) A good grade of top soil is placed in aluminum pans and compacted to a depth of three-eighths to one-half inch from the top of the pan. On the top of the soil is placed a number of seeds or vegetative propagules of various plant species. The soil required to level fill the pans after seeding or adding vegetative propagules is weighed into a pan. The soil and a known amount of the active ingredient applied in a solvent or as a wettable powder suspension are thoroughly mixed, and used to cover the prepared pans. […] As an alternative procedure, the overhead irrigation may be omitted. Observations are made about 2-3 weeks after seeding and treatment.
(§2) A further guide to the effectiveness of a chemical as a selective herbicide is the "selectivity factor" ("SF") for a herbicide in given crops and weeds. The selectivity factor is a measure of the relative degree of crop safety and weed injury and is expressed in terms of the GR15 /GR85 ratio, i.e., the GR15 rate for the crop divided by the GR85 rate for the weed, both rates in kg/ha (lb/A). In the tables below, selectivity factors are shown in parenthesis following the GR85 rate for each weed; the symbol "NS" indicates "non-selective". Marginal or undetermined selectivity is indicated by a dash (--).
(§3) Unless otherwise noted; greenhouse tests in Table VI and in other tables below involved herbicide treatments by soil incorporation and an initial overhead irrigation followed by subirrigation as described above.

fall panicum = assay: as above; type: in vivo
From the text: as §1, §2, §3

seedling johnsongrass = assay: as above; type: in vivo
From the text: as §1, §2, §3

shattercane = assay: as above; type: in vivo
From the text: as §1, §2, §3

Texas panicum = assay: as above; type: in vivo
From the text: as §1, §2, §3

alexandergrass = assay: as above; type: in vivo; conditions: for selectivity factor (GR15/GR85): in rape
From the text: as §1, §2, §3

itchgrass = assay: as above; type: in vivo
From the text: as §1, §2, §3

rape = assay: as above; type: in vivo
From the text: (§4) A good grade of top soil is placed in aluminum pans and compacted to a depth of three-eighths to one-half inch from the top of the pan. On the top of the soil is placed a number of seeds or vegetative propagules of various plant species. The soil required to level fill the pans after seeding or adding vegetative propagules is weighed into a pan. The soil and a known amount of the active ingredient applied in a solvent or as a wettable powder suspension are thoroughly mixed, and used to cover the prepared pans. After treatment, the pans are given an initial overhead irrigation of eater, equivalent to one-fourth inch (0.64 cm) rainfall, then watered by subirrigation as need to give adequate moisture for germination and growth. As an alternative procedure, the overhead irrigation may be omitted. Observations are made about 2-3 weeks after seeding and treatment.
(§5) In the discussion and tables of data below, reference is made to herbicide application rates symbolized as "GR15 " and "GR85 "; these rates are given in kilograms per hectare (kg/ha) which are convertible into pounds per acre (lbs/A) by dividing the kg/ha rate by 1.12.
as §2
(§6) Additionally, pre-emergence herbicidal data from other tests have established that compounds according to this invention also selectively suppress quackgrass, yellow nutsedge and/or other weeds in one or more of the crops cotton, peanuts, bush beans and/or rape. For example, in Table VI are presented data showing the herbicidal selectivity of the compounds of Examples 1 and 2 against quackgrass in rape and snap beans. Unless otherwise noted; greenhouse tests in Table VI and in other tables below involved herbicide treatments by soil incorporation and an initial overhead irrigation followed by subirrigation as described above.
(§7) In another greenhouse test, the compounds of Examples 3-5, 9 and 10 were tested for their herbicidal efficacy against a variety of resistant annual and perennial weeds in rape.

corn = assay: as above; type: in vivo
From the text: as §4, §5, §2
In Table IV pre-emergence herbicidal activity data are presented comparing the relative efficacy of the invention compounds and said prior art compounds as selective herbicides against the resistant and troublesome perennial weeds quackgrass and yellow nutsedge in soybeans and corn, respectively. These weeds are commonly associated with such major crops as corn and soybeans. The test data in Table IV were obtained under identical procedural conditions and represent two replicate runs (except for the compound of Example 9 which was present in one comparative test). The test procedure was the same as described for Tables II and III but modified by the application of an initial overhead irrigation equivalent to 1/4" (0.64 cm) rainfall; subsequent watering was accomplished by subirrigation. "NS" means non-selective within the test limits.
as §6

wild proso millet = assay: as above; type: in vivo, wild proso millet (panicum milicaeum)
From the text: as §1, §2, §3

purple nutsedge = assay: as above; type: in vivo; conditions: Table XV; for selectivity factor (GR15/GR85): in rape
From the text: as §4, §5, §2, §6
In other greenhouse tests, compounds according to this invention have shown selective control of a variety of annual and perennial weeds in various crops. As further illustrative, the compound of Example 1 selectively controlled purple nutsedge in both corn nd soybeans, the respective crop/weed GR15 /GR85 ratios (expressed in kg/ha) being 0.67/0.25 (S.F.=2.7) in corn and 1.1/0.25 (S.F.=4.5) in soybeans. The compound of Example 8 has shown selective control of yellow nutsedge and quackgrass in corn and soybeans. The respective crop/yellownutsedge GR15 /GR85 ratios being >2.2/0.95 (S.F.=2.5) in corn; 2.2/0.5 (SF=4.5) in soybeans and the respective GR15 /GR85 ratios for both corn and soybeans in quackgrass being >2.2/0.5 (S.F.=4.5). In a test against yellow nutsedge in cotton, the GR15 /GR85 ratio (average of two replicates) was 2.0/0.95 (S.F.=2).
as §7

[1] = Drummer silty clay, Table XVII A
[2] = Drummer silty clay, Table XVII B
[3] = Wabash silty clay, Table XVII B

Structure (SMILES): CC(C)OCN(C(=O)CCl)c1ccccc1C(F)(F)F [Example 2, N--(isopropoxymethyl)-2'-trifluoromethyl-2-chloroacetanilide]
- GR85 (Quackgrass; [1]): 0.56 Kg/Ha
- GR85 (Quackgrass; Florida muck, Table XVII A): 0.95 Kg/Ha
- GR85 (Quackgrass; Florida sand, Table XVII A): 0.22 Kg/Ha
- GR85 (Quackgrass; Ray silt loam, Table XVII A): 0.28 Kg/Ha
- GR85 (Quackgrass; Sarpy silty clay, Table XVII A): 0.43 Kg/Ha
- GR85 (Quackgrass; Wabash silty clay, Table XVII A): 0.34 Kg/Ha
- selectivity factor (GR15/GR85) (Quackgrass; [1]): > 4
- selectivity factor (GR15/GR85) (Quackgrass; Florida muck, Table XVII A): > 2
- selectivity factor (GR15/GR85) (Quackgrass; Florida sand, Table XVII A): 7.5
- selectivity factor (GR15/GR85) (Quackgrass; Ray silt loam, Table XVII A): 8
- selectivity factor (GR15/GR85) (Quackgrass; Sarpy silty clay, Table XVII A): > 5
- GR85 Rate (red rice; Table XIV): 0.14 Kg/Ha
- selectivity factor (GR15/GR85) (red rice; in soybeans, Table XIV): > 8.0
- GR85 Rate (fall panicum; Table XIV): < 0.07 Kg/Ha
- selectivity factor (GR15/GR85) (fall panicum; in soybeans, Table XIV): > 16
- GR85 Rate (seedling johnsongrass; Table XIV): 0.28 Kg/Ha
- selectivity factor (GR15/GR85) (seedling johnsongrass; in soybeans, Table XIV): > 4.0
- GR85 Rate (shattercane; Table XIV): 0.93 Kg/Ha
- selectivity factor (GR15/GR85) (shattercane; in soybeans, Table XIV): > 1.12
- GR85 Rate (Texas panicum; Table XIV): > 1.12 Kg/Ha
- GR85 Rate (alexandergrass; Table XIV): > 1.1 Kg/Ha
- GR85 Rate (itchgrass; Table XIV): > 1.1 Kg/Ha
- GR15 Rate (rape; Table VI): 1.9 Kg/Ha
- GR15 (corn; Table IV, Replicate #1): 3.1 Kg/Ha
- GR15 (corn; Table IV, Replicate #2): 0.78 Kg/Ha
- GR85 Rate (wild proso millet; Table XIV): 1.1 Kg/Ha
- selectivity factor (GR15/GR85) (wild proso millet; in soybeans, Table XIV): > 1.0

Structure (SMILES): Cc1cccc(C(F)(F)F)c1N(COCC(C)C)C(=O)CCl [Example 5, N--(isobutoxymethyl)-2'-trifluoromethyl-6'-methyl-2-chloroacetanilide]
- GR85 (Quackgrass; [2]): 1.1 Kg/Ha
- GR85 (Quackgrass; Florida muck, Table XVII B): 3.0 Kg/Ha
- GR85 (Quackgrass; Florida sand, Table XVII B): 1.1 Kg/Ha
- GR85 (Quackgrass; Ray silt loam, Table XVII B): > 2.2 Kg/Ha
- GR85 (Quackgrass; Sarpy silty clay, Table XVII B): 1.6 Kg/Ha
- GR85 (Quackgrass; [3]): 1.6 Kg/Ha
- selectivity factor (GR15/GR85) (Quackgrass; [2]): 2
- selectivity factor (GR15/GR85) (Quackgrass; Florida sand, Table XVII B): 3
- selectivity factor (GR15/GR85) (Quackgrass; Ray silt loam, Table XVII B): NS (non-selective)
- selectivity factor (GR15/GR85) (Quackgrass; Sarpy silty clay, Table XVII B): 2
- selectivity factor (GR15/GR85) (Quackgrass; [3]): 1.5
- GR85 Rate (purple nutsedge): 0.23 Kg/Ha
- selectivity factor (GR15/GR85) (purple nutsedge): > 4.9
- GR85 Rate (red rice; Table XVI): 0.53 Kg/Ha
- selectivity factor (GR15/GR85) (red rice; in lima beans, Table XVI): > 2.1
- selectivity factor (GR15/GR85) (red rice; in peanuts, Table XVI): 1.1
- GR85 Rate (fall panicum; Table XVI): 0.28 Kg/Ha
- selectivity factor (GR15/GR85) (fall panicum; in lima beans, Table XVI): > 4
- selectivity factor (GR15/GR85) (fall panicum; in peanuts, Table XVI): 2
- GR85 Rate (seedling johnsongrass; Table XVI): 0.37 Kg/Ha
- selectivity factor (GR15/GR85) (seedling johnsongrass; in lima beans, Table XVI): > 3
- selectivity factor (GR15/GR85) (seedling johnsongrass; in peanuts, Table XVI): 1.5
- GR85 Rate (shattercane; Table XVI): 0.56 Kg/Ha
- selectivity factor (GR15/GR85) (shattercane; in lima beans, Table XVI): > 2
- selectivity factor (GR15/GR85) (shattercane; in peanuts, Table XVI): 1
- GR85 Rate (Texas panicum; Table XVI): 0.53 Kg/Ha
- selectivity factor (GR15/GR85) (Texas panicum; in lima beans, Table XVI): > 2.1
- selectivity factor (GR15/GR85) (Texas panicum; in peanuts, Table XVI): 1.1
- GR85 Rate (alexandergrass; Table XV): 0.7 Kg/Ha
- selectivity factor (GR15/GR85) (alexandergrass; Table XV): > 1.6
- GR85 Rate (itchgrass; Table XVI): 0.56 Kg/Ha
- selectivity factor (GR15/GR85) (itchgrass; in lima beans, Table XVI): > 2
- selectivity factor (GR15/GR85) (itchgrass; in peanuts, Table XVI): 1
- GR15 Rate (rape; Table XV): > 1.12 Kg/Ha
- GR85 Rate (wild proso millet; Table XVI): 0.56 Kg/Ha
- selectivity factor (GR15/GR85) (wild proso millet; in lima beans, Table XVI): > 2
- selectivity factor (GR15/GR85) (wild proso millet; in peanuts, Table XVI): 1

Structure (SMILES): CCCOCN(C(=O)CCl)c1c(CC)cccc1C(F)(F)F [Example 10, N--(n-propoxymethyl)-2'-trifluoromethyl-6'-ethyl-2-chloroacetanilide]
- GR85 Rate (purple nutsedge): 0.18 Kg/Ha
- selectivity factor (GR15/GR85) (purple nutsedge): > 6.2
- GR85 Rate (red rice; Table XVI): 0.98 Kg/Ha
- selectivity factor (GR15/GR85) (red rice; in lima beans, Table XVI): > 1.1
- selectivity factor (GR15/GR85) (red rice; in peanuts, Table XVI): 1
- GR85 Rate (fall panicum; Table XVI): 0.22 Kg/Ha
- selectivity factor (GR15/GR85) (fall panicum; in lima beans, Table XVI): > 5.1
- selectivity factor (GR15/GR85) (fall panicum; in peanuts, Table XVI): 4.5
- GR85 Rate (seedling johnsongrass; Table XVI): 0.36 Kg/Ha
- selectivity factor (GR15/GR85) (seedling johnsongrass; in lima beans, Table XVI): > 3.1
- selectivity factor (GR15/GR85) (seedling johnsongrass; in peanuts, Table XVI): 2.7
- GR85 Rate (shattercane; Table XVI): 0.56 Kg/Ha
- selectivity factor (GR15/GR85) (shattercane; in lima beans, Table XVI): > 2
- selectivity factor (GR15/GR85) (shattercane; in peanuts, Table XVI): 1.8
- GR85 Rate (Texas panicum; Table XVI): 1.1 Kg/Ha
- selectivity factor (GR15/GR85) (Texas panicum; in lima beans, Table XVI): > 1
- selectivity factor (GR15/GR85) (Texas panicum; in peanuts, Table XVI): NS (non-selective)
- GR85 Rate (alexandergrass; Table XV): 0.36 Kg/Ha
- selectivity factor (GR15/GR85) (alexandergrass; Table XV): > 3.1
- GR85 Rate (itchgrass; Table XVI): 0.90 Kg/Ha
- selectivity factor (GR15/GR85) (itchgrass; in lima beans, Table XVI): > 1.2
- selectivity factor (GR15/GR85) (itchgrass; in peanuts, Table XVI): 1.1
- GR15 Rate (rape; Table XV): > 1.12 Kg/Ha
- GR15 (corn; Table XII): 1.7 Kg/Ha
- GR15 (corn; Table XIII): 2.5 Kg/Ha
- GR85 Rate (wild proso millet; Table XVI): 0.80 Kg/Ha
- selectivity factor (GR15/GR85) (wild proso millet; in lima beans, Table XVI): > 1.4
- selectivity factor (GR15/GR85) (wild proso millet; in peanuts, Table XVI): 1.2
